# Reference: patent US9987369B2, “Vitamin functionalized gel-forming block copolymers for biomedical applications” (INTERNATIONAL BUSINESS MACHINES CORPORATION, priority 2016, dated 2018)
# Assays:
# [1] = test system: C. albicans; assay: killing efficiency of solutions; assay type: cell-based, Candida albicans; conditions: solution, fluconazole at 5.0 mg/L
# Method: A stock solution of cationic polymer VE/PrBr(1:15) (5 mg) in sterile HPLC grade water (10 mL) was prepared having a final concentration of 500 mg/L (500 ppm). A second stock solution of fluconazole (1 mg) in sterile HPLC grade water (100 mL) was prepared having a final concentration of 10 mg/L (10 ppm). Three solutions were prepared: (1) cationic polymer alone at 1.0MIC=250 mg/L (250 ppm) against C. albicans, (2) A cationic polymer/fluconazole solution containing VE/PrBr(1:15) at 0.5MIC=125 mg/L (125 ppm) against C. albicans and fluconazole at 2.5 mg/L (2.5 ppm), and (3) fluconazole alone at 5.0 mg/L (5 ppm). Formulation (2) was obtained by combining […] each of the stock solutions of cationic polymer and fluconazole and diluting the resulting solution with 750 microliters of sterile HPLC grade water.
# [2] = test system: P. aeruginosa; assay: killing efficiency / minimum bactericidal concentration; assay type: cell-based, Pseudomonas aeruginosa; conditions: single agent
# Method: Procedure for hydrogels: E. coli, P. aeruginosa, S. aureus and C. albicans were obtained from ATCC and reconstituted from its lyophilized form according to the manufacturer's protocol. Bacterial samples were cultured in Tryptic Soy Broth (TSB) solution at 37° C. under constant shaking of 300 rpm. C. albicans was culture in yeast medium at room temperature under constant shaking of 70 rpm. Prior to treatment, the bacterial sample was first inoculated and cultured to enter into log growth phase. To prepare the antimicrobial hydrogels, cationic polymer was first dissolved in filtered HPLC water in a bio-hood. […] For instance, cationic polymer VE/BnCl(1:30) or cationic polymer VE/PrBr(1:30) was dissolved by using sterile HPLC grade water to form a polymer solution at various concentrations. This solution was then used to dissolve […]1.25 to form a 4 wt. % hydrogel containing various concentrations of the cationic polymers. […] The concentration of bacterial solution was adjusted to give an initial optical density (O.D.) reading of approximately 0.07 at 600 nm wavelength on a microplate reader (TECAN, Switzerland), which corresponds to the concentration of McFarland 1 solution (3×10^8 CFU/mL). […] The plates were incubated for 24 hours at 37° C. and the number of colony-forming units (CFU) was counted. […]
Molecule,killing efficiency against C. albicans [1] [%],MBC against P. aeruginosa [2] [mg/L]
"OC(Cn1cncn1)(Cn1cncn1)c1ccc(F)cc1F [fluconazole, Fluconazole]",93.53,–
Doxycycline [DXY],–,20 to 30
